# Experimental data taken from patent publication US4029671A, “3-[(5-nitro-2-imidazolyl)pyrazol-5-yl]oxamic acid derivatives” (priority 1976, dated 1977).
# Where a name gives a salt, the structure may show the parent alone.
# Key:
# [1] = test system: Bacteroides fragilis sp. fragilis 106; experiment: Agar dilution susceptibility of anaerobic bacteria (Chart 1); assay type: cell-based; conditions: agar dilution, 37° C., Bacteroides fragilis sp. fragilis 106; for MIC: Bacteroides fragilis, 24 h, read-out: 24 Hr. MIC
# Salmonella typhimurium = experiment: Control of infections caused by Salmonella typhimurium in chickens (Chart 2); assay type: in vivo; conditions: 60 mg./kg. subcutaneous, day-old chicks, 5 per group, 6 days observation
# Procedure: The efficacy of the novel compounds in the control of infections caused by Salmonella typhimurium in chickens was evaluated in the following manner. The test was carried out using day-old chicks weighing approximately 35 g. each. The chicks were divided into groups of 5 chicks per each dosage level. A portion of the chicks received the test compound which was suspended in 0.2 ml. of polyethylene glycol 200 and administered subcutaneously in the neck. […] All the chicks were challenged with a 1:200 dilution of a culture of the organism, 0.1 ml. of the dilution being injected into each chick in the leg intramuscularly. […] The test compounds are identified in the same manner as set forth in experiment 1. In the chart, column 1 lists the compounds tested; column 2, the dosage of test compound in mg./kg.; and column 3, the survival ratio.
# [2] = test system: Peptococcus asaccharolyticus 1302; experiment: Agar dilution susceptibility of anaerobic bacteria (Chart 1); assay type: cell-based; conditions: agar dilution, 37° C., Peptococcus asaccharolyticus 1302; for MIC: Peptoniphilus asaccharolyticus, 1302, 24 h, read-out: 24 Hr. MIC
# [3] = test system: Bacteroides fragilis sp. thetaiotaomicron 1900A; experiment: as above; assay type: cell-based; conditions: agar dilution, 37° C., Bacteroides fragilis sp. thetaiotaomicron 1900A; for MIC: Bacteroides fragilis, 24 h, read-out: 24 Hr. MIC
# [4] = test system: Bacteroides fragilis sp. fragilis 110; experiment: as above; assay type: cell-based; conditions: agar dilution, 37° C., Bacteroides fragilis sp. fragilis 110; for MIC: Bacteroides fragilis, 24 h, read-out: 24 Hr. MIC
# [5] = test system: Bacteroides melaninogenicus 1856/28; experiment: as above; assay type: cell-based; conditions: agar dilution, 37° C., Bacteroides melaninogenicus 1856/28; for MIC: Prevotella intermedia, 1856/28, 24 h, read-out: 24 Hr. MIC
# [6] = test system: Bacteroides fragilis sp. fragilis 62; experiment: as above; assay type: cell-based; conditions: agar dilution, 37° C., Bacteroides fragilis sp. fragilis 62; for MIC: Bacteroides fragilis, 24 h, read-out: 24 Hr. MIC
# Peptococcus prevoti 1281 = experiment: as above; assay type: cell-based; conditions: for 24 Hr. MIC: agar dilution, 37° C.
# [7] = test system: Bacteroides fragilis sp. vulgatis 1563; experiment: as above; assay type: cell-based; conditions: agar dilution, 37° C., Bacteroides fragilis sp. vulgatis 1563; for MIC: Bacteroides fragilis, 24 h, read-out: 24 Hr. MIC
# [8] = test system: Propionibacterium acnes 79; experiment: as above; assay type: cell-based; conditions: agar dilution, 37° C., Propionibacterium acnes 79; for MIC: Cutibacterium acnes, 79, 24 h, read-out: 24 Hr. MIC
# [9] = test system: Bacteroides vulgatis 1211; experiment: as above; assay type: cell-based; conditions: agar dilution, 37° C., Bacteroides vulgatis 1211
# [10] = test system: Clostridium perfringens 81; experiment: microbe, parasite or virus in culture; assay type: cell-based; conditions: for 24 Hr. MIC: agar dilution, 37° C.; for MIC: Clostridium perfringens, 81, 24 h, read-out: 24 Hr. MIC, agar dilution, 37° C.
# [11] = test system: Bacteroides melaninogenicus 2736; experiment: Agar dilution susceptibility of anaerobic bacteria (Chart 1); assay type: cell-based; conditions: agar dilution, 37° C., Bacteroides melaninogenicus 2736; for MIC: 2736, 24 h, read-out: 24 Hr. MIC
# [12] = test system: Bacteroides fragilis sp. fragilis 1874; experiment: as above; assay type: cell-based; conditions: agar dilution, 37° C., Bacteroides fragilis sp. fragilis 1874; for MIC: Bacteroides fragilis, 24 h, read-out: 24 Hr. MIC
# [13] = test system: Peptostreptococcus intermedius 1264; experiment: as above; assay type: cell-based; conditions: agar dilution, 37° C., Peptostreptococcus intermedius 1264; for MIC: Peptostreptococcus, 1264, 24 h, read-out: 24 Hr. MIC
# [14] = test system: Bacteroides fragilis sp. fragilis 103; experiment: as above; assay type: cell-based; conditions: agar dilution, 37° C., Bacteroides fragilis sp. fragilis 103; for MIC: Bacteroides fragilis, 24 h, read-out: 24 Hr. MIC
# [15] = test system: Eubacterium aerofaciens 1235; experiment: as above; assay type: cell-based; conditions: agar dilution, 37° C., Eubacterium aerofaciens 1235
# [16] = test system: Bacteroides fragilis sp. fragilis 111; experiment: as above; assay type: cell-based; conditions: agar dilution, 37° C., Bacteroides fragilis sp. fragilis 111; for MIC: Bacteroides fragilis, 24 h, read-out: 24 Hr. MIC
# [17] = test system: Bacteroides fragilis sp. fragilis 1470; experiment: as above; assay type: cell-based; conditions: agar dilution, 37° C., Bacteroides fragilis sp. fragilis 1470; for MIC: Bacteroides fragilis, 24 h, read-out: 24 Hr. MIC
# [18] = test system: Fusobacterium necrophorum 6054A; experiment: as above; assay type: cell-based; conditions: agar dilution, 37° C., Fusobacterium necrophorum 6054A; for MIC: Fusobacterium necrophorum, 6054A, 24 h, read-out: 24 Hr. MIC
# [19] = test system: Fusobacterium symbiosum 1470; experiment: as above; assay type: cell-based; conditions: agar dilution, 37° C., Fusobacterium symbiosum 1470; for MIC: Fusobacterium, 1470, 24 h, read-out: 24 Hr. MIC
# [20] = test system: Peptostreptococcus anaerobius 1428; experiment: as above; assay type: cell-based; conditions: agar dilution, 37° C., Peptostreptococcus anaerobius 1428; for MIC: Peptostreptococcus anaerobius, 1428, 24 h, read-out: 24 Hr. MIC
# [21] = test system: Bacteroides fragilis sp. fragilis 104; experiment: as above; assay type: cell-based; conditions: 24 h; agar dilution, 37° C.; Bacteroides fragilis sp. fragilis 104; read-out: 24 Hr. MIC
# [22] = test system: Bacteroides fragilis sp. fragilis 107; experiment: as above; assay type: cell-based; conditions: Bacteroides fragilis, 24 h, agar dilution, 37° C.; Bacteroides fragilis sp. fragilis 107; read-out: 24 Hr. MIC
# [23] = test system: Bacteroides fragilis sp. fragilis 1451; experiment: as above; assay type: cell-based; conditions: agar dilution, 37° C., Bacteroides fragilis sp. fragilis 1451; for MIC: Bacteroides fragilis, 24 h, read-out: 24 Hr. MIC
# [24] = test system: Actinomyces israelii W855; experiment: as above; assay type: cell-based; conditions: 24 h, agar dilution, 37° C., read-out: 24 Hr. MIC
# [25] = test system: Bacteroides fragilis sp. fragilis 2; experiment: as above; assay type: cell-based; conditions: Bacteroides fragilis, 24 h, agar dilution, 37° C.; Bacteroides fragilis sp. fragilis 2; read-out: 24 Hr. MIC
structure (smiles),measurement,setting,value
"CCOC(=O)C(=O)Nc1c(C#N)c(-c2ncc([N+](=O)[O-])n2C)nn1C [Example 2, N-[4-Cyano-1-methyl-3-(1-methyl-5-nitroimidazol-2-yl)pyrazol-5-yl]oxamic acid, ethyl ester, sodium salt]",24 Hr. MIC,[1]; sodium salt,0.25 µg/mL
same,Survival Ratio,Salmonella typhimurium; sodium salt,2/5
same,24 Hr. MIC,[2]; sodium salt,≤ 0.25 µg/mL
same,24 Hr. MIC,[3]; sodium salt,0.25 µg/mL
same,24 Hr. MIC,[4]; sodium salt,0.25 µg/mL
same,24 Hr. MIC,[5]; sodium salt,16 µg/mL
same,24 Hr. MIC,[6]; sodium salt,0.125 µg/mL
same,24 Hr. MIC,Peptococcus prevoti 1281; sodium salt,0.5 µg/mL
same,24 Hr. MIC,[7]; sodium salt,0.5 µg/mL
same,24 Hr. MIC,[8]; sodium salt,> 64 µg/mL
same,24 Hr. MIC,[9]; sodium salt,≤ 0.25 µg/mL
same,24 Hr. MIC,[10]; sodium salt,≤ 0.25 µg/mL
same,24 Hr. MIC,[11]; sodium salt,0.5 µg/mL
same,24 Hr. MIC,[12]; sodium salt,0.25 µg/mL
same,24 Hr. MIC,[13]; sodium salt,> 64 µg/mL
same,24 Hr. MIC,[14]; sodium salt,0.125 µg/mL
same,24 Hr. MIC,[15]; sodium salt,≤ 0.25 µg/mL
same,24 Hr. MIC,[16]; sodium salt,0.25 µg/mL
same,24 Hr. MIC,[17]; sodium salt,0.25 µg/mL
same,24 Hr. MIC,[18]; sodium salt,≤ 0.25 µg/mL
same,24 Hr. MIC,[19]; sodium salt,≤ 0.25 µg/mL
same,24 Hr. MIC,[20]; sodium salt,≤ 0.25 µg/mL
"Cn1nc(-c2ncc([N+](=O)[O-])n2C)c(C#N)c1NC(=O)C(=O)NN [Example 6, 5-[4-Cyano-1-methyl-3-(1-methyl-5-nitroimidazol-2-yl)pyrazol5-yl]semioxamazide]",MIC,[1],0.25 µg/mL
same,MIC,[21],0.25 µg/mL
same,Survival Ratio,Salmonella typhimurium,5/5
same,24 Hr. MIC,[2],≤ 0.25 µg/mL
same,MIC,[3],0.25 µg/mL
same,MIC,[4],0.5 µg/mL
same,MIC,[5],8 µg/mL
same,MIC,[6],0.5 µg/mL
same,24 Hr. MIC,Peptococcus prevoti 1281,0.5 µg/mL
same,MIC,[7],0.125 µg/mL
same,MIC,[8],32 µg/mL
same,24 Hr. MIC,[9],≤ 0.25 µg/mL
same,MIC,[22],0.5 µg/mL
same,24 Hr. MIC,[10],0.5 µg/mL
same,MIC,[11],≤ 0.25 µg/mL
same,MIC,[12],0.25 µg/mL
same,MIC,[13],32 µg/mL
same,MIC,[14],0.06 µg/mL
same,24 Hr. MIC,[15],0.5 µg/mL
same,MIC,[16],0.25 µg/mL
same,MIC,[17],0.25 µg/mL
same,MIC,[18],≤ 0.25 µg/mL
same,MIC,[19],≤ 0.25 µg/mL
same,MIC,[23],0.5 µg/mL
same,MIC,[24],> 64 µg/mL
same,MIC,[20],≤ 0.25 µg/mL
same,MIC,[25],0.25 µg/mL
"CCC[C@@H]1C[C@@H](C(=O)N[C@@H]([C@H]2O[C@H](SC)[C@H](O)[C@@H](O)[C@H]2O)[C@H](C)Cl)N(C)C1 [C, clindamycin, reference compound]",MIC,[1],0.125 µg/mL
same,MIC,[21],0.125 µg/mL
same,MIC,[2],≤ 0.5 µg/mL
same,MIC,[3],4 µg/mL
same,MIC,[4],0.125 µg/mL
same,MIC,[5],≤ 0.5 µg/mL
same,MIC,[6],0.25 µg/mL
same,MIC,"Peptococcus prevoti 1281; 24 h, read-out: 24 Hr. MIC, agar dilution, 37° C.",32 µg/mL
same,MIC,[7],0.125 µg/mL
same,MIC,[8],≤ 0.5 µg/mL
same,MIC,"[9]; Bacteroides, 1211, 24 h, read-out: 24 Hr. MIC",≤ 0.5 µg/mL
same,MIC,[22],0.25 µg/mL
same,MIC,[10],4 µg/mL
same,MIC,[11],≤ 0.5 µg/mL
same,MIC,[12],≤ 0.06 µg/mL
same,MIC,[13],1 µg/mL
same,MIC,[14],≤ 0.06 µg/mL
same,MIC,"[15]; Collinsella aerofaciens, 1235, 24 h, read-out: 24 Hr. MIC",8 µg/mL
same,MIC,[16],1 µg/mL
same,MIC,[17],0.25 µg/mL
same,MIC,[18],≤ 0.5 µg/mL
same,MIC,[19],≤ 0.5 µg/mL
same,MIC,[23],1 µg/mL
same,MIC,[24],≤ 0.5 µg/mL
same,MIC,[20],≤ 0.5 µg/mL
same,MIC,[25],0.25 µg/mL
"Cn1nc(-c2ncc([N+](=O)[O-])n2C)c(C#N)c1NC(=O)C(=O)c1ccccc1 [Example 10, N-[4-cyano-1-methyl-3-(1-methyl-5-nitroimidazol-2-yl)pyrazol-5-yl]-2-phenylglyoxylamide]",MIC,[1],≤ 0.03 µg/mL
same,MIC,[21],≤ 0.03 µg/mL
same,MIC,[2],1 µg/mL
same,24 Hr. MIC,[3],≤ 0.03 µg/mL
same,MIC,[4],≤ 0.03 µg/mL
same,MIC,[5],32 µg/mL
same,MIC,[6],≤ 0.03 µg/mL
same,24 Hr. MIC,Peptococcus prevoti 1281,16 µg/mL
same,24 Hr. MIC,[7],0.06 µg/mL
same,MIC,[8],64 µg/mL
same,24 Hr. MIC,[9],4 µg/mL
same,MIC,[22],≤ 0.03 µg/mL
same,MIC,[10],1 µg/mL
same,24 Hr. MIC,[11],2 µg/mL
same,MIC,[12],≤ 0.03 µg/mL
same,MIC,[13],64 µg/mL
same,MIC,[14],≤ 0.03 µg/mL
same,24 Hr. MIC,[15],2 µg/mL
same,MIC,[16],≤ 0.03 µg/mL
same,MIC,[17],≤ 0.03 µg/mL
same,MIC,[18],0.5 µg/mL
same,MIC,[19],≤ 0.03 µg/mL
same,24 Hr. MIC,[23],≤ 0.03 µg/mL
same,MIC,[24],> 64 µg/mL
same,24 Hr. MIC,[20],1.0 µg/mL
same,MIC,[25],≤ 0.03 µg/mL
